# In patent publication US6737383B1, “Herbicidal oxadiazolidines” (priority 1999, dated 2004):
# Legend:
# bedstraw = experiment: Test B pre/postemergence bedstraw; type: in vivo, Galium aparine
# In short: (§1)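 Test chemicals in a non-phytotoxic solvent mixture with surfactant were sprayed preemergence onto planted seeds and postemergence onto plants 2 to 18 cm tall (1- to 4-leaf stage). After twelve to sixteen days in a greenhouse, injury was visually rated against untreated controls from 0 (no effect) to 10 (complete control).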
# blackgrass = experiment: Test B pre/postemergence blackgrass; type: in vivo, Alopecurus myosuroides
# In short: as §1
# surinam grass = experiment: Test B pre/postemergence surinam grass; type: in vivo, Brachiaria decumbens
# In short: as §1
# cocklebur = experiment: Test B pre/postemergence cocklebur; type: in vivo, Xanthium strumarium
# In short: as §1
# corn = experiment: Test B pre/postemergence corn; type: in vivo, Zea mays
# In short: as §1
# crabgrass = experiment: Test B pre/postemergence crabgrass; type: in vivo, Digitaria sanguinalis
# In short: as §1
# rape = experiment: Test B pre/postemergence rape; type: in vivo, Brassica napus
# In short: as §1
# soybean = experiment: Test B pre/postemergence soybean; type: in vivo, Glycine max
# In short: as §1
# sugar beet = experiment: Test B pre/postemergence sugar beet; type: in vivo, Beta vulgaris
# In short: as §1
# velvetleaf = experiment: Test B pre/postemergence velvetleaf; type: in vivo, Abutilon theophrasti
# In short: as §1
# wheat = experiment: Test B pre/postemergence wheat; type: in vivo, Triticum aestivum
# In short: as §1
# wild oat = experiment: Test B pre/postemergence wild oat; type: in vivo, Avena fatua
# In short: as §1
# purple nutsedge = experiment: Test B pre/postemergence purple nutsedge; type: in vivo, Cyperus rotundus
# In short: as §1
# rice = experiment: Test B flood test rice; type: in vivo, Oryza sativa
# In short: (§2)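 Plants were grown to the 2-leaf stage before treatment with test chemical, then held in a greenhouse for twelve to sixteen days. Injury was visually rated against untreated controls on a 0–10 scale, where 0 is no effect and 10 is complete control.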
# smallflower flatsedge = experiment: Test B flood test smallflower flatsedge; type: in vivo, Cyperus difformis
# In short: as §2
# duck salad = experiment: Test B flood test duck salad; type: in vivo, Heteranthera limosa
# In short: as §2
# bamyardgrass = experiment: Test B flood test barnyardgrass; type: in vivo, Echinochloa crus-galli
# In short: as §2
# [1] = Postemergence, Rate 62 g/ha, scale 0 to 10, 0 is no effect, 10 is complete control
# [2] = Postemergence, Rate 250 g/ha, scale of 0 to 10, 0 is no effect, 10 is complete control
# [3] = Preemergence, Rate 250 g/ha, scale 0 to 10 (0 no effect, 10 complete control)
# [4] = Preemergence, Rate 500 g/ha, scale of 0 to 10 where 0 is no effect and 10 is complete control
# [5] = Postemergence, Rate 125 g/ha, scale of 0 to 10 where 0 is no effect and 10 is complete control
# [6] = Postemergence, Rate 500 g/ha, scale of 0 to 10 where 0 is no effect and 10 is complete control
# [7] = Preemergence, Rate 62 g/ha, scale 0 to 10 (0 no effect, 10 complete control)
# [8] = Preemergence, Rate 125 g/ha, scale of 0 to 10 where 0 is no effect and 10 is complete control
# [9] = Rate 62 g/ha, flood test species, Pre-emergence, visual evaluation after twelve to sixteen days
# [10] = Rate 125 g/ha, under heading Pre-emergence, flood test species, visual evaluation after twelve to sixteen days
# [11] = Rate 250 g/ha, Pre-emergence (flood test species), scale 0 to 10, 0 is no effect, 10 is complete control
# [12] = Rate 500 g/ha, Pre-emergence section of Table B, 0 to 10 scale (0 no effect, 10 complete control)
compound,measurement,setting,value
CC(C)N(C(=O)n1oc(=O)n(CNC(=O)c2ccccc2)c1=O)c1ccc(F)cc1F [Compound 619],"Plant response rating, Bedstraw",bedstraw; [1],0
same,Bedstraw plant response rating,bedstraw; [2],0
same,"Plant response rating, Bedstraw",bedstraw; [3],0
same,Bedstraw plant response rating,bedstraw; [4],0
same,"Plant response rating, Blackgrass",blackgrass; [1],0
same,"Plant response rating, Blackgrass",blackgrass; [5],0
same,Blackgrass plant response rating,blackgrass; [2],0
same,"Plant response rating, Blackgrass",blackgrass; [6],0
same,Blackgrass plant response rating,blackgrass; [7],0
same,Blackgrass plant response rating,blackgrass; [8],0
same,"Plant response rating, Blackgrass",blackgrass; [3],0
same,Blackgrass plant response rating,blackgrass; [4],0
same,"Plant response rating, B. signalgrass",surinam grass; [1],0
same,"Plant response rating, B. signalgrass",surinam grass; [5],0
same,B. signalgrass plant response rating,surinam grass; [2],0
same,"Plant response rating, B. signalgrass",surinam grass; [6],2
same,B. signalgrass plant response rating,surinam grass; [7],0
same,B. signalgrass plant response rating,surinam grass; [8],0
same,"Plant response rating, B. signalgrass",surinam grass; [3],0
same,B. signalgrass plant response rating,surinam grass; [4],3
same,"Plant response rating, Cocklebur",cocklebur; [1],0
same,"Plant response rating, Cocklebur",cocklebur; [5],0
same,Cocklebur plant response rating,cocklebur; [2],0
same,"Plant response rating, Cocklebur",cocklebur; [6],0
same,Cocklebur plant response rating,cocklebur; [7],0
same,Cocklebur plant response rating,cocklebur; [8],0
same,"Plant response rating, Cocklebur",cocklebur; [3],0
same,"Plant response rating, Cocklebur",cocklebur; [4],0
same,"Plant response rating, Corn",corn; [1],0
same,"Plant response rating, Corn",corn; [5],0
same,Corn plant response rating,corn; [2],0
same,"Plant response rating, Corn",corn; [6],0
same,Corn plant response rating,corn; [7],0
same,Corn plant response rating,corn; [8],0
same,"Plant response rating, Corn",corn; [3],0
same,"Plant response rating, Corn",corn; [4],2
same,"Plant response rating, Crabgrass",crabgrass; [1],0
same,"Plant response rating, Crabgrass",crabgrass; [5],0
same,Crabgrass plant response rating,crabgrass; [2],0
same,"Plant response rating, Crabgrass",crabgrass; [6],2
same,Crabgrass plant response rating,crabgrass; [7],0
same,Crabgrass plant response rating,crabgrass; [8],1
same,"Plant response rating, Crabgrass",crabgrass; [3],6
same,"Plant response rating, Crabgrass",crabgrass; [4],8
same,"Plant response rating, Rape",rape; [1],0
same,"Plant response rating, Rape",rape; [5],0
same,Rape plant response rating,rape; [2],0
same,"Plant response rating, Rape",rape; [6],3
same,Rape plant response rating,rape; [7],0
same,Rape plant response rating,rape; [8],0
same,"Plant response rating, Rape",rape; [3],0
same,"Plant response rating, Rape",rape; [4],0
same,"Plant response rating, Soybean",soybean; [1],1
same,"Plant response rating, Soybean",soybean; [5],1
same,Soybean plant response rating,soybean; [2],1
same,Soybean plant response rating,soybean; [7],0
same,Soybean plant response rating,soybean; [8],0
same,"Plant response rating, Soybean",soybean; [3],0
same,"Plant response rating, Soybean",soybean; [4],0
same,"Plant response rating, Sugarbeets",sugar beet; [1],0
same,"Plant response rating, Sugarbeets",sugar beet; [5],0
same,Sugarbeets plant response rating,sugar beet; [2],0
same,Sugarbeets plant response rating,sugar beet; [7],0
same,Sugarbeets plant response rating,sugar beet; [8],0
same,"Plant response rating, Sugarbeets",sugar beet; [3],0
same,"Plant response rating, Sugarbeets",sugar beet; [4],0
same,"Plant response rating, Velvetleaf",velvetleaf; [1],0
same,"Plant response rating, Velvetleaf",velvetleaf; [5],0
same,Velvetleaf plant response rating,velvetleaf; [2],2
same,Velvetleaf plant response rating,velvetleaf; [7],0
same,Velvetleaf plant response rating,velvetleaf; [8],0
same,"Plant response rating, Velvetleaf",velvetleaf; [3],0
same,"Plant response rating, Velvetleaf",velvetleaf; [4],4
same,"Plant response rating, Wheat",wheat; [1],0
same,"Plant response rating, Wheat",wheat; [5],0
same,Wheat plant response rating,wheat; [2],0
same,Wheat plant response rating,wheat; [7],0
same,Wheat plant response rating,wheat; [8],0
same,"Plant response rating, Wheat",wheat; [3],0
same,"Plant response rating, Wheat",wheat; [4],0
same,"Plant response rating, Wild oats",wild oat; [1],0
same,"Plant response rating, Wild oats",wild oat; [5],0
same,Wild oats plant response rating,wild oat; [2],0
same,Wild oats plant response rating,wild oat; [7],0
same,Wild oats plant response rating,wild oat; [8],0
same,"Plant response rating, Wild oats",wild oat; [3],0
same,"Plant response rating, Wild oats",wild oat; [4],0
same,"Plant response rating, Nutsedge",purple nutsedge; [1],0
same,"Plant response rating, Nutsedge",purple nutsedge; [5],0
same,Nutsedge plant response rating,purple nutsedge; [2],0
same,"Plant response rating, Nutsedge",purple nutsedge; [6],0
same,Nutsedge plant response rating,purple nutsedge; [7],0
same,Nutsedge plant response rating,purple nutsedge; [8],0
same,"Plant response rating, Nutsedge",purple nutsedge; [3],0
same,"Plant response rating, Rice (0 to 10 scale, 0 is no effect, 10 is complete control)",rice; [9],0
same,"Rice plant response rating (0 to 10 scale, 0 is no effect, 10 is complete control)",rice; [10],0
same,Rice plant response rating,rice; [11],0
same,Rice plant response rating,rice; [12],0
same,"Plant response rating, S. Flatsedge (0 to 10 scale, 0 is no effect, 10 is complete control)",smallflower flatsedge; [9],0
same,"S. Flatsedge plant response rating (0 to 10 scale, 0 is no effect, 10 is complete control)",smallflower flatsedge; [10],0
same,S. Flatsedge plant response rating,smallflower flatsedge; [11],0
same,S. Flatsedge plant response rating,smallflower flatsedge; [12],0
same,"Plant response rating, Ducksalad (0 to 10 scale, 0 is no effect, 10 is complete control)",duck salad; [9],0
same,"Ducksalad plant response rating (0 to 10 scale, 0 is no effect, 10 is complete control)",duck salad; [10],0
same,Ducksalad plant response rating,duck salad; [11],0
same,Ducksalad plant response rating,duck salad; [12],0
same,"Plant response rating, Barnyardgrass (0 to 10 scale, 0 is no effect, 10 is complete control)",bamyardgrass; [9],0
same,"Barnyardgrass plant response rating (0 to 10 scale, 0 is no effect, 10 is complete control)",bamyardgrass; [10],0
same,Barnyardgrass plant response rating,bamyardgrass; [11],0
same,Barnyardgrass plant response rating,bamyardgrass; [12],0
